In this experiment the target is T1, RIPK2 enzyme (Homo sapiens, UniProt O43353).
T1 construct: purchased Carna 09-128
T1 sequence (O43353 1-299 limits assumed): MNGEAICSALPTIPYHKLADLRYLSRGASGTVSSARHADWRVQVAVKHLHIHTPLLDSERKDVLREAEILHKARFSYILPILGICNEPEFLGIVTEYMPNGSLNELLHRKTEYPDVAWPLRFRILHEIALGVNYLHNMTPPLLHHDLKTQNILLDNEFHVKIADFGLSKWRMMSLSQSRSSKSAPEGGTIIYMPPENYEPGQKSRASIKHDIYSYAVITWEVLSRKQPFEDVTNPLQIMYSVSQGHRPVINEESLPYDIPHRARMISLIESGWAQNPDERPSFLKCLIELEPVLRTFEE
Nature of the experiment: RIPK2 inhibition (ADP-Glo Kinase Assay). It counts as biochemical. The conditions noted are these: RIPK2 5 nM, ATP 150 μM, MBP substrate, read-out: RIPK2 IC50. The procedure: RIPK2 inhibition was measured as follows:
The V9102 ADP-Glo Kinase Assay (including ultrapure ATP, 10 mM) was purchased from Promega. Native swine MBP was used as the substrate for the reaction and was purchased from SignalChem Biotech (catalogue number M42-51N). Assay buffer used for the assay consisted of the following components: MgCl2 (final concentration of 10 mM), Brij-35 (0.01%), DTT (final concentration of 2 mM), BSA (0.05%), EGTA (final concentration of 1 mM), and HEPE (pH 7.5 at final concentration of 50 mM).
Method: In a 384 well plate, 10 nL of test compound was dispensed using Echo550 and mixed with RIPK2 enzyme (final concentration of 5 nM) in assay buffer for 30 minutes at room temperature. […] Then ADP-Glo reagent was added and incubated for 60 min at room temperature. Last, Kinase Detection Reagent was added to the mixture and incubated for 60 min. The resulting luminescent signal was measured with an Envision reader to determine the amount of ADP produced. All plates contained vehicle controls (10 nL DMSO only) as a reference for the high control (0% kinase inhibition), and wells with no RIPK2 enzyme as reference for low control (100% kinase inhibition). Data were analyzed to determine the percent inhibition of ADP production in the presence of test compound using both low and high controls.
On the technique in general: ADP-Glo turns the ADP formed in a reaction into a luminescent signal.
For orientation: IC50 means the point on the concentration scale where inhibition reaches its midpoint. On to `Cc1cc(CC(=O)Nc2cnn(C(C)(C)C)c2)ccc1Oc1ccnc2ccc(OC3CCNCC3C)cc12` (racemic) [Compound 187], for which the 50% inhibitory concentration (IC50) is < 2.5 nM. On to `Cc1cc(CC(=O)Nc2cnn(C(C)(C)C)c2)ccc1Oc1ccnc2ccc(OC3CCNCC3C)cc12` (racemic) [Compound 188, N-(1-(tert-butyl)-1H-pyrazol-4-yl)-2-(3-methyl-4-((6-((-3-methyl-piperidin-4-yl)oxy)quinolin-4-yl)oxy)phenyl) acetamide], for which the IC50 is < 2.5 nM. `Cc1cc(CC(=O)Nc2cnn(C(C)(C)C)c2)ccc1Oc1ccnc2ccc(OC3CCNCC3O)cc12` (racemic) [Compound 189, N-(1-(tert-butyl)-1H-pyrazol-4-yl)-2-(4-((6-((-3-hydroxy-piperidin-4-yl)oxy)quinolin-4-yl)oxy)-3-methylphenyl) acetamide]: the half-maximal inhibitory concentration (IC50) is < 2.5 nM. In the case of `Cc1cc(CC(=O)Nc2cnn(C(C)(C)C)c2)ccc1Oc1ccnc2ccc(OC3CCNC(C)C3)cc12` (racemic) [Compound 220, N-(1-(tert-butyl)-1H-pyrazol-4-yl)-2-(3-methyl-4-((6-((-2-methyl-piperidin-4-yl)oxy)quinolin-4-yl)oxy)phenyl) acetamide], the IC50 was < 2.5 nM.

Regarding `Cc1cc(CC(=O)Nc2cnn(C(C)(C)C)c2)ccc1Oc1ccnc2ccc(OC3CCNC(C)C3)cc12` (racemic) [Compound 221, N-(1-(tert-butyl)-1H-pyrazol-4-yl)-2-(3-methyl-4-((6-((-2-methyl-piperidin-4-yl)oxy)quinolin-4-yl)oxy)phenyl) acetamide], the half-maximal inhibitory concentration (IC50) is < 2.5 nM. As to `Cc1cc(CC(=O)Nc2cnn(C(C)(C)C)c2)ccc1Oc1ccnc2ccc(OC3CCNCC3F)cc12` (racemic) [Compound 237, N-(1-(tert-butyl)-1H-pyrazol-4-yl)-2-(4-((6-((-3-fluoro-piperidin-4-yl)oxy)quinolin-4-yl)oxy)-3-methylphenyl) acetamide], the IC50 is < 2.5 nM. Then `Cc1cc(CC(=O)Nc2cnn(C(C)(C)C)c2)ccc1Oc1ccnc2ccc(OC3CCNCC3F)cc12` (racemic) [Compound 238, N-(1-(tert-butyl)-1H-pyrazol-4-yl)-2-(4-((6-((-3-fluoro-piperidin-4-yl)oxy)quinolin-4-yl)oxy)-3-methylphenyl) acetamide], with < 2.5 nM; and `COc1ccc2ncnc(Oc3cnc(C(C)C(=O)Nc4cnn(C(C)(C)C)c4)c(F)c3)c2c1` (single isomer, unassigned) [Compound 11, N-(1-(tert-butyl)-1H-pyrazol-4-yl)-2-(3-fluoro-5-((6-methoxyquinazolin-4-yl)oxy)pyridin-2-yl)propanamide], with 70.7 nM.

Turning to `CC(C)(C)n1cc(NC(=O)Cc2ccc(Oc3ccnc4ccc(S(C)(=N)=O)cc34)cc2F)cn1` (single isomer, unassigned) [Compound 69, N-(1-(tert-butyl)-1H-pyrazol-4-yl)-2-(2-fluoro-4-((6-(S-methylsulfonimidoyl)quinolin-4-yl)oxy)phenyl)acetamide], the IC50 worked out at 6.9 nM. For the compound `CC(C)(C)n1cc(NC(=O)Cc2ccc(Oc3ccnc4ccc(S(C)(=N)=O)cc34)cc2F)cn1` (single isomer, unassigned) [Compound 70, N-(1-(tert-butyl)-1H-pyrazol-4-yl)-2-(2-fluoro-4-((6-(S-methylsulfonimidoyl)quinolin-4-yl)oxy)phenyl)acetamide], the half-maximal inhibitory concentration (IC50) came to 5.1 nM.

For `CN(C)C1CCN(c2ccc3nccc(Oc4cnc(CC(=O)Nc5cnn(C(C)(C)C)c5)c(F)c4)c3c2)C1` (single isomer, unassigned) [Compound 140, N-(1-(tert-butyl)-1H-pyrazol-4-yl)-2-(5-((6-(3-(dimethylamino)pyrrolidin-1-yl)quinolin-4-yl)oxy)-3-fluoropyridin-2-yl)acetamide], the IC50 came to 7.4 nM. In the case of `CN(C)C1CCN(c2ccc3nccc(Oc4cnc(CC(=O)Nc5cnn(C(C)(C)C)c5)c(F)c4)c3c2)C1` (single isomer, unassigned) [Compound 141, N-(1-(tert-butyl)-1H-pyrazol-4-yl)-2-(5-((6-(3-(dimethylamino)pyrrolidin-1-yl)quinolin-4-yl)oxy)-3-fluoropyridin-2-yl)acetamide], the IC50 came to 10.3 nM. Take `Cc1cc(CC(=O)Nc2cnn(C(C)(C)C)c2)ccc1Oc1ccnc2ccc(OCC3CCCN3)cc12` (single isomer, unassigned) [Compound 190, N-(1-(tert-butyl)-1H-pyrazol-4-yl)-2-(3-methyl-4-((6-(pyrrolidin-2-ylmethoxy)quinolin-4-yl)oxy)phenyl) acetamide]: the concentration for half-maximal inhibition (IC50) was < 2.5 nM.

For the compound `Cc1cc(CC(=O)Nc2cnn(C(C)(C)C)c2)ccc1Oc1ccnc2ccc(OCC3CCCN3)cc12` (single isomer, unassigned) [Compound 191, N-(1-(tert-butyl)-1H-pyrazol-4-yl)-2-(3-methyl-4-((6-(pyrrolidin-2-ylmethoxy)quinolin-4-yl)oxy)phenyl) acetamide], the IC50 is < 2.5 nM. With `CC(C)(C)n1cc(NC(=O)Cc2ccc(Oc3ccnc4ccc(S(C)(=N)=O)cc34)c(Cl)c2)cn1` (single isomer, unassigned) [Compound 196, N-(1-(tert-butyl)-1H-pyrazol-4-yl)-2-(3-chloro-4-((6-(S-methylsulfonimidoyl)quinolin-4-yl)oxy)phenyl)acetamide], the half-maximal inhibitory concentration (IC50) was < 2.5 nM. The same measure for `Cc1cc(CC(=O)Nc2cnn(C(C)(C)C)c2)ccc1Oc1ccnc2ccc(S(=O)(=O)C3CCOC3)cc12` (single isomer, unassigned) [Compound 199, N-(1-(tert-butyl)-1H-pyrazol-4-yl)-2-(3-methyl-4-((6-((tetrahydrofuran-3-yl)sulfonyl)quinolin-4-yl)oxy)phenyl)acetamide]: < 2.5 nM. Take `Cc1cc(CC(=O)Nc2cnn(C(C)(C)C)c2)ccc1Oc1ccnc2ccc(S(=O)(=O)C3CCOC3)cc12` (single isomer, unassigned) [Compound 200, N-(1-(tert-butyl)-1H-pyrazol-4-yl)-2-(3-methyl-4-((6-((tetrahydrofuran-3-yl)sulfonyl)quinolin-4-yl)oxy)phenyl)acetamide]: the IC50 was < 2.5 nM. As for `Cc1cc(CC(=O)Nc2cnn(C(C)(C)C)c2)ccc1Oc1ccnc2ccc(S(=O)(=O)C3CCNC3)cc12` (single isomer, unassigned) [Compound 201, N-(1-(tert-butyl)-1H-pyrazol-4-yl)-2-(3-methyl-4-((6-(pyrrolidin-3-ylsulfonyl)quinolin-4-yl)oxy)phenyl)acetamide], the IC50 was < 2.5 nM. Then `Cc1cc(CC(=O)Nc2cnn(C(C)(C)C)c2)ccc1Oc1ccnc2ccc(S(=O)(=O)C3CCNC3)cc12` (single isomer, unassigned) [Compound 202, N-(1-(tert-butyl)-1H-pyrazol-4-yl)-2-(3-methyl-4-((6-(pyrrolidin-3-ylsulfonyl)quinolin-4-yl)oxy)phenyl)acetamde], with < 2.5 nM. The same measure for `Cc1cc(CC(=O)Nc2cnn(C(C)(C)C)c2)ccc1Oc1ccnc2ccc(OCC(C)O)cc12` (single isomer, unassigned) [Compound 224, N-(1-(tert-butyl)-1H-pyrazol-4-yl)-2-(4-((6-(2-hydroxy-propoxy)quinolin-4-yl)oxy)-3-methylphenyl) acetamide]: < 2.5 nM; for `Cc1cc(CC(=O)Nc2cnn(C(C)(C)C)c2)ccc1Oc1ccnc2ccc(OCC(C)O)cc12` (single isomer, unassigned) [Compound 225, N-(1-(tert-butyl)-1H-pyrazol-4-yl)-2-(4-((6-(2-hydroxy-propoxy)quinolin-4-yl)oxy)-3-methylphenyl) acetamide]: < 2.5 nM. Then `Cc1cc(CC(=O)Nc2cnn(C(C)(C)C)c2)ccc1Oc1ccnc2ccc(S(=O)(=O)CC3CCOC3)cc12` (single isomer, unassigned) [Compound 241, N-(1-(tert-butyl)-1H-pyrazol-4-yl)-2-(3-methyl-4-((6-(((tetrahydrofuran-3-yl)methyl)sulfonyl)quinolin-4-yl)oxy)phenyl)acetamide], with < 2.5 nM; and `Cc1cc(CC(=O)Nc2cnn(C(C)(C)C)c2)ccc1Oc1ccnc2ccc(S(=O)(=O)CC3CCOC3)cc12` (single isomer, unassigned) [Compound 242, N-(1-(tert-butyl)-1H-pyrazol-4-yl)-2-(3-methyl-4-((6-(((tetrahydrofuran-3-yl)methyl)sulfonyl)quinolin-4-yl)oxy)phenyl)acetamide], with < 2.5 nM; and `Cc1c(Oc2ccnc3ccc(S(=O)(=O)C4CCOC4)cc23)ccc(CC(=O)Nc2cnn(C(C)(C)C)c2)c1F` (single isomer, unassigned) [Compound 250, N-(1-(tert-butyl)-1H-pyrazol-4-yl)-2-(2-fluoro-3-methyl-4-((6-((tetrahydrofuran-3-yl)sulfonyl)quinolin-4-yl)oxy)phenyl)acetamide], with < 2.5 nM. On to `Cc1c(Oc2ccnc3ccc(S(=O)(=O)C4CCOC4)cc23)ccc(CC(=O)Nc2cnn(C(C)(C)C)c2)c1F` (single isomer, unassigned) [Compound 251, N-(1-(tert-butyl)-1H-pyrazol-4-yl)-2-(2-fluoro-3-methyl-4-((6-((tetrahydrofuran-3-yl)sulfonyl)quinolin-4-yl)oxy)phenyl)acetamide], for which the IC50 is < 2.5 nM.
